For data set [1] the following is noted: aged rats, chronic subcutaneous 100 mg/kg/day; cited from earlier work.
For data set [2], the system named is memory-impaired aged rats. The settings on record: cited from earlier work.
Data set [3] deals with aged-impaired (AI) rats. Put plainly: eight-arm Radial Arm Maze (RAM) task with one-hour delay, spatial memory retention. In kind it is in vivo, rat.

For the compound `CCCC(CCC)C(=O)[O-].[Na+]` [sodium valproate], the “blood total valproate level” value in data set [1] was 10 µg/ml plasma. For the same compound, the “performance in a memory test” value in data set [2] (chronic subcutaneous 100 mg/kg/day) is “significantly improved”.
Regarding `CCCC(CCC)C(=O)O` [valproate, 2-propylpentanoate], the “treatment of cognitive impairment” value in data set [2] (chronic subcutaneous 50 mg/kg/day) is listed as “not effective”. In addition, the “effective in reducing the number of errors, on its own” value in data set [3] (valproate subcutaneous 25 mg/kg) is “not”; in data set [3] (valproate subcutaneous 50 mg/kg) it was “not”; in data set [3] (valproate subcutaneous 100 mg/kg), “effective”.
